Test results taken from patent EP0724879A2, “2-Phenyl-3-azoylbenzothiopenes for inhibiting effects of IL-6” (ELI LILLY AND COMPANY, priority 1995, dated 1996).

Legend:
[1] = test system: IL-6 stimulated cell proliferation (T1165.17 plasmacytoma; B9 hybridoma); assay: Assay 3: cytokine dependent cell proliferation, IL-6; type: cell-based; details: Mus musculus; 50% inhibition of IL-6 dependent cell proliferation; 0.01 to 1 µM tested
Description: (§1) The following mouse cell lines were used for cytokine bioassays: CTLL.6 cytolytic T cell - IL-2, IL-4; 11.6 helper T cell - IL-4; T1165.17 plasmacytoma - IL-1, IL-6; B9 hybridoma - IL-6, LIF (leukemia inhibitory factor). Approximately 5,000 cells are seeded per duplicate well in 96-well flat-bottom microtiter plates in standard tissue culture medium (i.e. Iscove's Modified Dulbecco's Medium or Dulbecco's Modified Eagle's Medium supplemented with 25 mM Hepes, 2 mM L-glutamine, 50 µM 2-mercaptoethanol, 50 units/ml penicillin, 50 µg/ml streptomycin sulfate, and fetal bovine serum) containing vehicle (DMSO), raloxifene (0.01 to 1 µM) or 17-b-estradiol (0.01 to 1 µM) in the absence or presence of the indicated recombinant cytokine. Microtiter plates are incubated at 37°C in a humidified 10% CO2 incubator for 24 to 72 hours. At the end of that time, either 1 µCi 3H-thymidine or 100 µg of MTT (3-[4,5-dimethylthiazol-2-yl]-2,5-diphenyltetrazolium bromide) is added per well followed by an additional 4 to 6 hours of incubation. Microcultures pulsed using tritiated thymidine are harvested onto filter pads and counted by liquid scintillation. […] Optical density readings are taken at 570 nm with a reference wavelength of 690 nm to quantitate cell proliferation. […]

[2] = test system: LIF stimulated cell proliferation (B9 hybridoma); assay: Assay 3: cytokine dependent cell proliferation, LIF; type: cell-based; details: Mus musculus; 50% inhibition of LIF dependent cell proliferation; 0.01 to 1 µM tested
Description: as §1

OVX-induced osteopenia = assay: Assay 1: bone mass / BMD protection in OVX rats; type: in vivo, SD rats; details: for BMD % (protection) / OVX-induced osteopenia: OVX rats, 35 day treatment; for OVX-induced osteopenia / bone density: result in words; for bone density: OVX/hypophysectomized (HYPOX) rats
Description: (§2) Six month old, virgin SD rats are OVX or OVX/hypophysectomized (HYPOX) and treated with vehicle (20% cyclodextrin, PO), raloxifene (0.1 to 10 mg/kg/day, PO) or ethynyl estradiol EE2; 0.001 to 0.1 mg/kg/day, PO). A sham, vehicle treated control is also included. Serum and/or long bones are collected after a 35 day or shorter treatment period. Serum cytokine determinations are performed by bioassay.
(§3) No consistent changes in other serum cytokines is detected.

IL-6 [3] = assay: Assay 1: serum IL-6 in OVX rats (bioassay); type: in vivo, SD rats
Description: as §2, §3

[4] = test system: IL-2 stimulated proliferation (CTLL.6 cytolytic T cell); assay: Assay 3: cytokine dependent cell proliferation, IL-2; type: cell-based; details: Mus musculus, 50% inhibition of IL-2 dependent cell proliferation, 0.01 to 1 µM tested
Description: as §1

[5] = test system: IL-4 stimulated proliferation (CTLL.6 cytolytic T cell; 11.6 helper T cell); assay: Assay 3: cytokine dependent cell proliferation, IL-4; type: cell-based; details: Mus musculus, 50% inhibition of IL-4 dependent cell proliferation, 0.01 to 1 µM tested
Description: as §1

IL-6 [6] = assay: Assay 2: IL-1-induced serum IL-6 in mice (ELISA); type: in vivo; details: male BALB/c mice, 1 mg/kg PO for 3 days, then IL-1b 3 ug SC, 2 hours
Description: Ten week old male BALB/c mice are treated with vehicle (20% cyclodextrin, PO) or raloxifene (1 mg/kg, PO) for 3 days. On day 4, mice are treated with vehicle (saline, IP), LA-15.1 anti-IL-1 receptor monoclonal antibody (mAb) (250 ug, IP) or human recombinant IL-1b (3 ug, SC). After 2 hours, serum was collected by orbital sinus puncture and IL-6 levels quantitated by ELISA.
Injection of IL-1 into cyclodextrin treated mice induces a significant increase in serum IL-6 (193 ± 29 ng/ml) versus saline injected cyclodextrin treated mice (<1 ng/ml) (Table 2). […] The anti-IL-1 receptor mAb LA-15.1 completely attenuates the IL-1-induced rise in serum IL-6 levels.

[7] = OVX rats, 100 µg/kg, 35 day treatment
[8] = OVX rats, 35 day treatment, PO, result in words
[9] = animals treated for as few as four days post-OVX, result in words

Compound | IC50 [1] | IC50 [2] | BMD % (protection) (OVX-induced osteopenia; 100 µg/kg) | Serum IL-6 (IL-6 [3]; [7]) | IC50 [4] | IC50 [5] | OVX-induced osteopenia (OVX-induced osteopenia; PO) | bone density (OVX-induced osteopenia) | rise in serum IL-6 levels (IL-6 [3]; [8]) | Serum IL-6 (IL-6 [3]; [9]) | further results
C[C@]12CC[C@@H]3c4ccc(O)cc4CC[C@H]3[C@@H]1CC[C@@H]2O [17-β-E2, 17-b-estradiol] | > 1 µM | > 1 µM | 106.4 ± 11.8% | 0.07 ± 0.10 ng/mL | > 1 µM | > 1 µM | – | – | – | – | –
C#C[C@]1(O)CC[C@H]2[C@@H]3CCc4cc(O)ccc4[C@H]3CC[C@@]21C [Ethy, ethynyl estradiol] | – | – | 76.00 ± 18.3% | 0.20 ± 0.10 ng/mL | – | – | significantly attenuate | did not respond | significantly attenuate | significant reduction | BMD % (protection) (OVX-induced osteopenia; 1 µg/kg): 5.28 ± 11.83%; BMD % (protection) (OVX-induced osteopenia; 10 µg/kg): 57.25 ± 16.07%; Serum IL-6 (IL-6 [3]; OVX rats, 1 µg/kg, 35 day treatment): 3.42 ± 2.23 ng/mL; Serum IL-6 (IL-6 [3]; OVX rats, 10 µg/kg, 35 day treatment): 1.84 ± 0.60 ng/mL
O=C(c1ccc(OCCN2CCCCC2)cc1)c1c(-c2ccc(O)cc2)sc2cc(O)ccc12 [Raloxifene] | 0.719 µM | 0.603 µM | – | – | > 1 µM | > 1 µM | significantly attenuate | did not respond | significantly attenuate | significant reduction | BMD % (protection) (OVX-induced osteopenia; 0.1 mg.kg, PO): 63.88 ± 19.8%; BMD % (protection) (OVX-induced osteopenia; 1 mg/kg, PO): 82.50 ± 17.17%; BMD % (protection) (OVX-induced osteopenia; 10 mg/kg, PO): 82.09 ± 7.02%; Serum IL-6 (IL-6 [3]; OVX rats, 0.1 mg.kg, PO, 35 day treatment): 4.32 ± 1.65 ng/mL; Serum IL-6 (IL-6 [3]; OVX rats, 1 mg/kg, PO, 35 day treatment): 1.55 ± 0.48 ng/mL; Serum IL-6 (IL-6 [3]; OVX rats, 10 mg/kg, PO, 35 day treatment): 1.23 ± 0.45 ng/mL; IL-6 (IL-6 [6]; 1 mg/kg): 90 ± 21 ng/mL; IL-6 (IL-6 [6]; listed as 139478, 1 mg/kg): 90 ± 2.1 ng/mL
